We go through 23 molecules from patent US20230339970A1, “CASEIN KINASE 1 DELTA MODULATORS” (priority 2020, published 2023).

One test has as its target T1, human CSNK1D (Homo sapiens, UniProt P48730).
T1 construct: expressed in transfected cells
The test can be described thus: Whole Cell nBRET CSNK1D Binding Assay. To be noted: living CHO cells stably expressing human CSNK1D tagged with nanoluciferase; NanoBret tracer 130 nM; 2 hours at 37 C.

Test [1] concerns the target T2, human recombinant GST cleaved CSNK1D (Homo sapiens, UniProt P48730).
T2 construct: GST (cleaved yes); purchased University of Dundee clone DU 19064
Briefly: Purified Enzyme Assay (ADP-Glo CSNK1D Kinase Assay). It is filed as biochemical. To be noted: 2 nM CSNK1D; peptide substrate 150 μM; ATP 20 μM; 45 minutes at room temperature. Put shortly:
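Percent activity derived from ADP-Glo quantification of ADP produced. Reactions: compound dose-response with human recombinant GST-cleaved CSNK1D, ATP and substrate peptide PLSRTL-pS-VASLPGL, incubated 45 min at room temperature.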

Bounds are passed on as bounds.

Usually IC50 stands for the midpoint of a concentration-inhibition curve.

T2 sequence (P48730 whole entry): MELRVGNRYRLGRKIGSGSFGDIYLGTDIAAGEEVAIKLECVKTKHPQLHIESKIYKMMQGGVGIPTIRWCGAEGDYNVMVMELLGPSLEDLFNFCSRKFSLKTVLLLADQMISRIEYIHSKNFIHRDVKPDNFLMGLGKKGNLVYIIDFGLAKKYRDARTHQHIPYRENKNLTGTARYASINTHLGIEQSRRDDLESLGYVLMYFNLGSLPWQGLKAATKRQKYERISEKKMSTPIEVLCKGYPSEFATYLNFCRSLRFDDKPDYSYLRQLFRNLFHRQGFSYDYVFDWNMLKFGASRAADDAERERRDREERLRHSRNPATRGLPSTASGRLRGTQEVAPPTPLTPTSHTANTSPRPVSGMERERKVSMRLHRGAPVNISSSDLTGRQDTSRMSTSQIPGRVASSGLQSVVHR
T1 sequence (P48730 whole entry): as above

For `Fc1ccc(-c2nn3c(c2-c2ccnc4[nH]ncc24)OCC2(C3)CC2(F)F)cc1` (single isomer, unassigned) [Example 476, (*S)-2,2-Difluoro-2′-(4-fluorophenyl)-3′-1H-pyrazolo[3,4-b]pyridin-4-yl)-5′H,7′H-spiro[cyclopropane-1,6′-pyrazolo[5,1-b][1,3]oxazine]], the IC50 (at human CSNK1D; in test [1]) was 1 nM each time.

Take `Fc1ccc(-c2nn3c(c2-c2ccnc4[nH]ncc24)OCC2(C3)CC2(F)F)cc1` (single isomer, unassigned) [Example 477, (*R)-2,2-Difluoro-2′-(4-fluorophenyl)-3′-1H-pyrazolo[3,4-b]pyridin-4-yl)-5′H,7′H-spiro[cyclopropane-1,6′-pyrazolo[5,1-b][1,3]oxazine]]: the IC50 came to 33 nM on human CSNK1D and 6 nM in test [1].

`Fc1ccc(-c2nn3c(c2-c2ccnc4[nH]ncc24)OCC2(C3)CC2(F)F)nc1` (single isomer, unassigned) [Example 478, (*S)-2,2-Difluoro-2′-(5-fluoropyridin-2-yl)-3′-1H-pyrazolo[3,4-b]pyridin-4-yl)-5′H,7′H-spiro[cyclopropane-1,6′-pyrazolo[5,1-b][1,3]oxazine]]: the IC50 on human CSNK1D came out at 4 nM; in test [1], 1 nM.

Turning to `Fc1ccc(-c2nn3c(c2-c2ccnc4[nH]ncc24)OCC2(C3)CC2(F)F)nc1` (single isomer, unassigned) [Example 479, (*R)-2,2-Difluoro-2′-(5-fluoropyridin-2-yl)-3′-1H-pyrazolo[3,4-b]pyridin-4-yl)-5′H,7′H-spiro[cyclopropane-1,6′-pyrazolo[5,1-b][1,3]oxazine]], the IC50 on human CSNK1D was determined as 1320 nM; in test [1], 32 nM.

Consider `COC1(C)COCc2c(-c3ccnc4[nH]ncc34)c(-c3ccc(F)cn3)nn2C1` (single isomer, unassigned) [Example 485, (*S)-2-(5-Fluoropyridin-2-yl)-7-methoxy-7-methyl-3-(1H-pyrazolo[3,4-b]pyridin-4-yl)-7,8-dihydro-4H,6H-pyrazolo[5,1-c][1,4]oxazepine], for which the values for the IC50 (at human CSNK1D; in test [1]) were 8060 nM and 370 nM, respectively.

As for `COC1(C)COCc2c(-c3ccnc4[nH]ncc34)c(-c3ccc(F)cn3)nn2C1` (single isomer, unassigned) [Example 486, (*R)-2-(5-Fluoropyridin-2-yl)-7-methoxy-7-methyl-3-(1H-pyrazolo[3,4-b]pyridin-4-yl)-7,8-dihydro-4H,6H-pyrazolo[5,1-c][1,4]oxazepine], the 50% inhibitory concentration (IC50) on human CSNK1D is greater than 10000 nM; in test [1], 763 nM.

For `C[C@@H]1[C@@H](C)OCc2c(-c3ccnc4[nH]ncc34)c(-c3ccc(F)cn3)nn21` (stereo in doubt) [Example 118, (6*R,7*R)-2-(5-Fluoropyridin-2-yl)-6,7-dimethyl-3-(1H-pyrazolo[3,4-b]pyridin-4-yl)-6,7-dihydro-4H-pyrazolo[5,1-c][1,4]oxazine], the IC50 on human CSNK1D was 1160 nM; in test [1], 49 nM.

For the molecule `C[C@@H]1OCc2c(-c3ccnc4[nH]ncc34)c(-c3ccc(F)cn3)nn2[C@H]1C` (stereo in doubt) [Example 119, (6*S,7*S)-2-(5-Fluoropyridin-2-yl)-6,7-dimethyl-3-(1H-pyrazolo[3,4-b]pyridin-4-yl)-6,7-dihydro-4H-pyrazolo[5,1-c][1,4]oxazine], the IC50 on human CSNK1D is 751 nM; in test [1] it was 32 nM.

On to `Fc1ccc(-c2nn3c(c2-c2ccnc4[nH]ncc24)CC[C@H]2C[C@H]23)cc1` (stereo in doubt) [Example 339, (5a*S,6a*R)-2-(4-Fluorophenyl)-3-(1H-pyrazolo[3,4-b]pyridin-4-yl)-5,5a,6,6a-tetrahydro-4H-cyclopropa[e]pyrazolo[1,5-a]pyridine], for which the concentration for half-maximal inhibition (IC50) at human CSNK1D turned out to be 7 nM; in test [1], 1 nM.

As to `Fc1ccc(-c2nn3c(c2-c2ccnc4[nH]ncc24)CC[C@@H]2C[C@@H]23)cc1` (stereo in doubt) [Example 340, (5a*R,6a*S)-2-(4-Fluorophenyl)-3-(1H-pyrazolo[3,4-b]pyridin-4-yl)-5,5a,6,6a-tetrahydro-4H-cyclopropa[e]pyrazolo[1,5-a]pyridine], the IC50 on human CSNK1D came out at 39 nM; in test [1], 5 nM.

As to `CC(=O)Nc1cc(-c2c(-c3ccc(F)cn3)nn3c2CC[C@@H]2C[C@@H]23)ccn1` (stereo in doubt) [Example 341, N-(4-((5a*R,6a*S)-2-(5-Fluoropyridin-2-yl)-5,5a,6,6a-tetrahydro-4H-cyclopropa[e]pyrazolo[1,5-a]pyridin-3-yl)pyridin-2-yl)acetamide], the IC50 at human CSNK1D was found to be 24 nM; in test [1], 2 nM.

Turning to `CC(=O)Nc1cc(-c2c(-c3ccc(F)cn3)nn3c2CC[C@H]2C[C@H]23)ccn1` (stereo in doubt) [Example 342, N-(4-((5a*S,6a*R)-2-(5-Fluoropyridin-2-yl)-5,5a,6,6a-tetrahydro-4H-cyclopropa[e]pyrazolo[1,5-a]pyridin-3-yl)pyridin-2-yl)acetamide], the IC50 amounted to 454 nM on human CSNK1D and 20 nM in test [1].

Turning to `CC(=O)Nc1cc(-c2c(-c3ccc(F)cc3)nn3c2CC[C@@H]2[C@H]3C2(F)F)ccn1` (stereo in doubt) [Example 349, N-(4-((5a*R,6a*S-6,6-Difluoro-2-(4-fluorophenyl)-5,5a,6,6a-tetrahydro-4H-cyclopropa[e]pyrazolo[1,5-a]pyridin-3-yl)pyridin-2-yl)acetamide], the half-maximal inhibitory concentration (IC50) at human CSNK1D was 74 nM; in test [1], 8 nM.

`CC(=O)Nc1cc(-c2c(-c3ccc(F)cc3)nn3c2CC[C@H]2[C@@H]3C2(F)F)ccn1` (stereo in doubt) [Example 350, N-(4-((5a*S,6a*R)-6,6-Difluoro-2-(4-fluorophenyl)-5,5a,6,6a-tetrahydro-4H-cyclopropa[e]pyrazolo[1,5-a]pyridin-3-yl)pyridin-2-yl)acetamide]: the IC50 (on human CSNK1D; in test [1]) was 1 nM throughout.

Take `CC(=O)Nc1cc(-c2c(-c3ccc(F)cn3)nn3c2CC[C@H]2[C@@H]3C2(F)F)ccn1` (stereo in doubt) [Example 351, N-(4-((5a*S,6a*R)-6,6-Difluoro-2-(5-fluoropyridin-2-yl)-5,5a,6,6a-tetrahydro-4H-cyclopropa[e]pyrazolo[1,5-a]pyridin-3-yl)pyridin-2-yl)acetamide]: the IC50 at human CSNK1D came out at 20 nM; in test [1], 2 nM.

On to `CC(=O)Nc1cc(-c2c(-c3ccc(F)cn3)nn3c2CC[C@@H]2[C@H]3C2(F)F)ccn1` (stereo in doubt) [Example 352, N-(4-((5a*R,6a*S)-6,6-Difluoro-2-(5-fluoropyridin-2-yl)-5,5a,6,6a-tetrahydro-4H-cyclopropa[e]pyrazolo[1,5-a]pyridin-3-yl)pyridin-2-yl)acetamide], for which the IC50 turned out to be 1300 nM on human CSNK1D and 50 nM in test [1].

Take `Fc1ccc(-c2nn3c(c2-c2ccn4nccc4c2)CC[C@H]2[C@@H]3C2(F)F)cc1` (stereo in doubt) [Example 353, (5a*S,6a*R)-6,6-Difluoro-2-(4-fluorophenyl)-3-(pyrazolo[1,5-a]pyridin-4-yl)-5,5a,6,6a-tetrahydro-4H-cyclopropa[e]pyrazolo[1,5-a]pyridine]: the IC50 was found to be 3830 nM at human CSNK1D and 1120 nM in test [1].

`Fc1ccc(-c2nn3c(c2-c2ccn4nccc4c2)CC[C@@H]2[C@H]3C2(F)F)cc1` (stereo in doubt) [Example 354, (5a*R,6a*S)-6,6-difluoro-2-(4-fluorophenyl)-3-(pyrazolo[1,5-a]pyridin-4-yl)-5,5a,6,6a-tetrahydro-4H-cyclopropa[e]pyrazolo[1,5-a]pyridine]: the IC50 is 71 nM at human CSNK1D and 18 nM in test [1].

Take `Fc1ccc(-c2nn3c(c2-c2ccnc4[nH]ncc24)CC[C@H]2[C@@H]3C2(F)F)cc1` (stereo in doubt) [Example 355, (5a*S,6a*R)-6,6-Difluoro-2-(4-fluorophenyl)-3-(1H-pyrazolo[3,4-b]pyridin-4-yl)-5,5a,6,6a-tetrahydro-4H-cyclopropa[e]pyrazolo[1,5-a]pyridine]: the values for the IC50 (at human CSNK1D; in test [1]) were 27 nM and 9 nM, respectively.

Regarding `Fc1ccc(-c2nn3c(c2-c2ccnc4[nH]ncc24)CC[C@@H]2[C@H]3C2(F)F)cc1` (stereo in doubt) [Example 356, (5a*R,6a*S-6,6-Difluoro-2-(4-fluorophenyl)-3-(1H-pyrazolo[3,4-b]pyridin-4-yl)-5,5a,6,6a-tetrahydro-4H-cyclopropa[e]pyrazolo[1,5-a]pyridine], the IC50 on human CSNK1D is 2 nM; in test [1] it was 1 nM.

On to `Fc1ccc(-c2nn3c(c2-c2ccnc4[nH]ncc24)C[C@@H]2[C@H](C3)C2(F)F)cc1` (stereo in doubt) [Example 362, (4a*R,5a*R)-5,5-Difluoro-2-(4-fluorophenyl)-3-(1H-pyrazolo[3,4-b]pyridin-4-yl)-4a,5,5a,6-tetrahydro-4H-cyclopropa[d]pyrazolo[1,5-a]pyridine], for which the IC50 at human CSNK1D turned out to be 3 nM; in test [1], 1 nM.

Turning to `Fc1ccc(-c2nn3c(c2-c2ccnc4[nH]ncc24)C[C@H]2[C@@H](C3)C2(F)F)cc1` (stereo in doubt) [Example 363, (4a*S,5a*S)-5,5-Difluoro-2-(4-fluorophenyl)-3-(1H-pyrazolo[3,4-b]pyridin-4-yl)-4a,5,5a,6-tetrahydro-4H-cyclopropa[d]pyrazolo[1,5-a]pyridine], the figures for the IC50 (on human CSNK1D; in test [1]) were 1410 nM and 60 nM, respectively.

Consider `Fc1ccc(-c2nn3c(c2-c2c(F)cnc4[nH]ncc24)OC[C@@H]2C[C@@H]2C3)nc1` (stereo in doubt) [Example 480, (5a*R,6a*S)-3-(5-Fluoro-1H-pyrazolo[3,4-b]pyridin-4-yl)-2-(5-fluoropyridin-2-yl)-5a,6,6a,7-tetrahydro-5H-cyclopropa[e]pyrazolo[5,1-b][1,3]oxazepine], for which the IC50 on human CSNK1D is 228 nM; in test [1], 10 nM.
